Data reported in paper PMC6370762, “Endogenous pore-forming protein complex targets acidic glycosphingolipids in lipid rafts to initiate endolysosome regulation” (Communications Biology, 2019).

These substances were tested against BmTFF3 (Bombina maxima, UniProt B2BRT2). Conditions: PBS pH 7.4, 37 °C; 1:1 global fit; also bound on lipid overlay strips.
BmTFF3, sequence (B2BRT2 21-166 limits assumed): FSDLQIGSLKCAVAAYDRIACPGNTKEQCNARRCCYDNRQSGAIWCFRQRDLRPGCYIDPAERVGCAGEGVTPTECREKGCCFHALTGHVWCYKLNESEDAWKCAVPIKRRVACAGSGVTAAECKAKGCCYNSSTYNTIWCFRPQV

Question: How did the Kd turn out when sulfatides was run?
Answer: Its Kd is roughly 0.0623 µM.

What follows are substances tested against T1, βγ-CAT. Conditions: PBS pH 7.4, 37 °C; 1:1 global fit; gangliosides bind the BmALP1 subunit.
T1 construct: gene BmALP1

Question: GD1a was tested. Which Kd did it give?
Answer: The Kd was 0.0763 µM.

Question: How did the Kd turn out when GD1b was run?
Answer: The Kd was 0.521 µM.

Question: For GD3, which Kd is on record?
Answer: The Kd was 0.0467 µM.

Question: Which Kd does the source give for GM1 here?
Answer: The Kd was 0.0305 µM.

Question: Which Kd does the source give for GM2 here?
Answer: The Kd was 0.0537 µM.

Question: How did the Kd turn out when GM3 was run?
Answer: Its Kd is 0.0102 µM.

Question: GM4 was tested. Which Kd did it give?
Answer: The Kd was 0.0463 µM.

Question: For GT1b, which Kd is on record?
Answer: Its Kd is 0.527 µM.

The substances below were run against T1, βγ-CAT. Conditions: PBS pH 7.4, 37 °C; 1:1 global fit; site on BmTFF3 subunit.

Question: Which Kd does the source give for sulfatides here?
Answer: Its Kd is 0.0655 µM.
